Assay type in all cases: in vivo, human
A short description of one series: Change in body weight. The conditions noted are these: for Weight Change (SE) Week 14: 2 weeks after treatment stopped; for Weight Change (SE) Week 8: change from Day 1.
The subject of the next series is hemoglobin A1c (HbA1c). The series is described as follows: Glucose control: change from baseline in HbA1c, double-blind placebo-controlled study in type II DM. The conditions noted are these: for Hemoglobin A1c Endpoint Change % from baseline, Mean (SD): last available measurement carried forward; for Hemoglobin A1c Change % from baseline, Week 4, Mean (SD): type II DM subjects. The protocol:
Accordingly, subjects with type II DM were treated with a combination of rhIGF-I and glyburide, or with rhIGF-I or glyburide alone, to ascertain the potential benefits of the addition of rh1GF-I to glyburide therapy on glycemic control, incidence of hypoglycemia, and weight gain. […] The use of any additional orally administered drug or insulin to treat hyperglycemia during the pretreatment and treatment periods was prohibited. […] Randomization was stratified by gender, by prior oral […] agent therapy, and by HbA1c level at day 14.

Series [1] is described as follows: Mid-thigh CT scan: thigh adipose tissue (TAT). The protocol:
All CT scans were performed on GE Sytec 4000 CT scanners or an equivalent scanner.
An initial Thigh Scan was performed using the following procedure: • 1. The subject lay on the CT bed with his or her feet toward the scanner. The subject's knees were at least 3 inches above the extended bed joint, not over the joint. • 2. The legs were positioned so they were not touching each other and the hands were crossed over the abdomen so as not to interfere with the scan. • 3. The CT technician then positioned the bed. The entire femur was visualized in the initial topogram. • 4. The technician then made a topogram of the entire femur of the non-dominant leg and recorded this picture on the film. The length of the femur was then measured and recorded and this measurement was used to identify the midpoint of the femur. This midpoint was used to assess the cross section of the thigh. • 5. The technician took a 10-mm slice at the precise level of the mid-point of the femur with the following settings for a GE Sytec 4000 scanner: • kV=100 • MA=170 • 1 sec • DFOV=21 • Algorithm=standard
Technicians were advised that although settings for some scanners may be slightly different, the settings must be standardized so as to give the greatest definition for fat and lean tissue. Once the technician determined the appropriate setting for a scanner, he or she was advised to use the same settings for every (slice) scan. The topograms could be at different settings as the topograms would not be imaged. • 6. The entire cross section of the nondominant thigh was visualized on the screen. If the entire thigh was not visualized on the screen, the picture was reconfigured with a larger display field of view. Once the entire thigh was visualized on the screen, the technician downloaded the cross section to the disk. The disk was checked to make sure the image was actually there, and then the picture was recorded on film. • 7. The exam number, series number, and image number of the slice was then recorded. • 8. The technician sent the film to the printer at this point. The film was set at four pictures per film, and the film had for the femur the recorded total distance, the midpoint, and the slice of the thigh.
The same leg (left) was used as in the initial scan. A topogram of the thigh was taken, and a measurement made down the femur to the midpoint of the femur using the same distance as was used in the baseline thigh scan. A 10-mm cross section scan was taken at the midpoint using the identical settings as were used for the baseline scan. A record was made of the exam number, series number, and image number of the slice.
Slices were downloaded onto the scanner and then retrieved via optical disk (or the Internet if possible) to a computer for analysis. During analysis, the area of intra-abdominal and subcutaneous fat as well as oblique, psoas, quadratum laborum, and sacrospinalis muscles were measured. The images were digitized by optical density to separate bone, muscle, and fat compartments using a modified version of the NIH IMAGE program. Pixel units were converted to area measurements using an internal calibration standard. Digitized images were analyzed in a blinded fashion. The coefficient of variation of repeated analysis of a single scan is <1.5%.

A short description of series [2]: ETDRS retinopathy score by fundus photography. The protocol:
Because concern existed regarding the effects of rhIGF-I on two types of ocular findings—progression of diabetic retinopathy and optic disc swelling—the occurrence of such findings was recorded as a measure of safety. An ophthalmologic visit for dilated funduscopic examination was performed during the screening period. Additionally, fundus photography was performed on each subject prior to initiation of treatment with rhIGF-I or placebo between day 7 and day 1. When optic disc swelling was detected on the initial baseline photograph, the subject was terminated from the study immediately. If the baseline photograph was scored at an Early Treatment Diabetic Retinopathy Study (ETDRS) scale of greater than 35 in either eye, the subject was also not allowed to progress further in the study.
Both the ophthalmologic examination and fundus photography were repeated at the completion of the treatment period or at the early termination visit in the event of premature termination. The ophthalmologic exam was performed within 3 days of the fundus photography. In the event that optic disc swelling was detected on the fundus photograph obtained at the week 12 or early termination visits, subjects were asked to return for repeat fundus photography at 1-3 months following discontinuation from the study, and again at 3-month intervals until the optic disc swelling resolved.
Fundus photographs, obtained for each subject at week 12 or at the early termination visit, were compared with the photographs obtained prior to treatment in order to evaluate the development of retinopathy during the course of the study. The photographs for each eye were graded using the final version of the ETDRS scale. The resulting scores for each eye were combined to yield the ETDRS person score. A change between day 1 and week 12 (or early termination) in the full scale ETDRS person score of three or more levels (5 units) was recorded as a progression of retinopathy and as an adverse event.
A change in ETDRS level was the maximum difference between baseline and on-study or post-treatment values. A negative change indicated improvement.

The mark [3] stands for this setting: glyburide 10 mg BID + rhIGF-I placebo.
[4] abbreviates: glyburide 10 mg BID + rhIGF-I placebo (n = 29).
The mark [5] stands for this setting: IGF-I 20 μg/kg BID, with glyburide or glyburide placebo per label.
The mark [6] stands for this setting: IGF-I 40 μg/kg BID, with glyburide or glyburide placebo per label.
Setting [7] is: low dose IGF-I (20 μg/kg BID) alone.
The mark [8] stands for this setting: rhIGF-I 20 μg/kg BID SC, with glyburide 10 mg BID or glyburide placebo per label.
[9] abbreviates: rhIGF-I 40 μg/kg BID SC, with glyburide 10 mg BID or glyburide placebo per label.
Setting [10] is: IGF-I 20 μg/kg, with glyburide or glyburide placebo per label.
Where [11] appears, read: IGF-I 40 μg/kg, with glyburide or glyburide placebo per label.
Setting [12] is: IGF-I 20 μg/kg BID, with glyburide (n = 36) or glyburide placebo (n = 35).
Where [13] appears, read: IGF-I 40 μg/kg BID, with glyburide (n = 36) or glyburide placebo (n = 33).

Values joined by “and” are separate entries in the source; they are usually repeats but may differ in a detail not shown here. Equal values may be shown once.

Consider `COc1ccc(Cl)cc1C(=O)NCCc1ccc(S(=O)(=O)NC(=O)NC2CCCCC2)cc1` [Glyburide, glyburide, reference compound], for which, in “Change in body weight” (setting [3]), the “Weight Change (SE) Week 14” value was 0.0 (0.8) kg and the “Weight Change (SE) Week 8” value is on record as −0.2 (0.4) kg. Also, in the series with hemoglobin A1c (HbA1c) (setting [3]), the “Hemoglobin A1c Change % from baseline, Week 8, Mean (SD)” value is 0.05 (0.7) %; the “Hemoglobin A1c Change % from baseline, Week 12, Mean (SD)” value is 0.32% and 0.32 (0.7) %; the “Hemoglobin A1c Endpoint Change % from baseline, Mean (SD)” value (from here on “Hemoglobin A1c Endpoint Change % … (SD)”) is given as 0.12 (0.8) %; the “Hemoglobin A1c Change % from baseline, Week 4, Mean (SD)” value is −0.13 (0.5) %. Also, the “Change in TAT (%), mean (SEM)” value in series [1] (glyburide active + IGF-I placebo) was 2.5 (2.0) %. Besides, the “Change in TAT, mean (SEM)” value in series [1] (glyburide active + IGF-I placebo, thigh CT, change from baseline) is recorded as 1.0 (1.6) sq cm. Also, the “subjects showing an improvement in retinal score” value (“subjects showing an improvement” below) in series [2] (Placebo/glyburide group) is “one”. Besides, in series [2] (setting [4]), the “Change in ETDRS levels: 1- to 2-step Progression” value (“Change … to 2-step Progression” for short) is listed as 8 (28) n (%), the “Change in ETDRS levels: No change” value was 19 (66) n (%), the “Change in ETDRS levels: −1- to −2-step progression (negative change = improvement)” value (shortened to “Change … (negative change = improvement)”) was 1 (3) n (%) and the “Change in ETDRS levels: ≧3-step progression” value (from here on “Change … ≧3-step progression”) is listed as 1 (3) n (%).
Take “IGF-I: recombinant human insulin-like growth factor-I from Genentech; sterile benzyl alcohol-preserved solution, 70 mg in 7 mL acetate/NaCl, pH 5.4; given SC”: in the series “Change in body weight” (setting [5]), the “Weight Change (SE) Week 14” value is −2.7 (0.6) kg and the “Weight Change (SE) Week 8” value is reported as −1.5 (0.6) kg. In the series “Change in body weight” (setting [6]), the “Weight Change (SE) Week 14” value is recorded as −1.6 (0.5) kg and the “Weight Change (SE) Week 8” value was −0.2 (0.5) kg. In addition, in the series “Change in body weight” (setting [7]), the “weight loss 2 weeks after treatment was stopped (Week 14)” value worked out at 2.7 kg and the “weight lost on average, Week 8” value is listed as 1.5 kg. In addition, in the series on hemoglobin A1c (HbA1c) (setting [8]), the “Hemoglobin A1c Change % from baseline, Week 8, Mean (SD)” value was −0.29 (0.8) %; the “Hemoglobin A1c Change % from baseline, Week 12, Mean (SD)” value is recorded as 0.13 (1.2) %; the “Hemoglobin A1c Change % from baseline, Week 4, Mean (SD)” value was −0.10 (0.6) %. Also, the “Hemoglobin A1c Endpoint Change % … (SD)” value in the series with hemoglobin A1c (HbA1c) (rhIGF-I 20 μg/kg BID SC, with glyburide 10 mg BID or placebo per label) is listed as 0.04 (0.9) %. Moreover, in the series with hemoglobin A1c (HbA1c) (setting [9]), the “Hemoglobin A1c Change % from baseline, Week 8, Mean (SD)” value is listed as −0.47 (0.9) %; the “Hemoglobin A1c Change % from baseline, Week 12, Mean (SD)” value was −0.58% and −0.58 (1.2) %; the “Hemoglobin A1c Change % from baseline, Week 4, Mean (SD)” value is −0.37 (0.5) %. The “Hemoglobin A1c Endpoint Change % … (SD)” value in the series with hemoglobin A1c (HbA1c) (rhIGF-I 40 μg/kg BID SC, with glyburide 10 mg BID or placebo per label) was −0.30 (0.8) %. Further, in series [1] (setting [10]), the “Change in TAT (%), mean (SEM)” value is −1.4 (3.7) % and the “Change in TAT, mean (SEM)” value is recorded as −1.2 (2.8) sq cm. Also, in series [1] (setting [11]), the “Change in TAT (%), mean (SEM)” value is recorded as 3.9 (4.3) % and the “Change in TAT, mean (SEM)” value was 0.3 (4.3) sq cm. Besides, in series [2] (setting [12]), the “Change … to 2-step Progression” value is recorded as 4 (11) n (%), the “Change in ETDRS levels: No change” value is reported as 24 (69) n (%), the “Change … (negative change = improvement)” value was 6 (17) n (%) and the “Change … ≧3-step progression” value is recorded as 1 (3) n (%). In series [2] (IGF-I 20 μg/kg BID, with glyburide or placebo per label), the “subjects showing an improvement” value was 6 subjects. Also, in series [2] (setting [13]), the “Change … to 2-step Progression” value is 7 (21) n (%), the “Change in ETDRS levels: No change” value was 20 (61) n (%), the “Change … (negative change = improvement)” value was 5 (15) n (%) and the “Change … ≧3-step progression” value is on record as 0 n (%). The “subjects showing an improvement” value in series [2] (IGF-I 40 μg/kg BID, with glyburide or placebo per label) worked out at 5 subjects. In addition, the “progression of retinopathy (increases in the ETDRS scores)” value in series [2] (IGF-I 20 or 40 μg/kg BID, 12 weeks, type II DM subjects) was “did not cause a progression of retinopathy”.

(Values after patent US7833964B2, “Methods of reducing visceral fat by increasing levels of insulin-like growth factor-I (IGF-I)” (Tercica, Inc., priority 2003, dated 2010).)
